A word on the solubility: it is the concentration that dissolves in the medium under given conditions.

≈ marks a conversion by molar mass, not a printed value. A value given as a limit tells only on which side of the number the result lay.

Results on 30 compounds are retold here after patent US20240199623A1 (ILDONG PHARMACEUTICAL CO., LTD., priority 2020, published 2024).

One series addresses human wild type-CFTR (Homo sapiens, UniProt P13569). Kind of series: Cell-based YFP assay. The arrangement: expressed in transfected cells; host or cells: CHO-K1 (Chinese hamster ovary). Conditions: CHO-K1 cells expressing human wild type-CFTR and YFP-H148Q/I152L; forskolin 20 μM = 100% activity; read-out: Cell-based YFP Assay (EC50) Concentration Range. A digest of the protocol: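 I⁻-driven YFP fluorescence quenching at 37 °C: 2 s baseline, addition of 140 mM iodide solution, then 14 s of readings at 0.4 s intervals. Cells were CHO-K1 expressing human wild-type CFTR plus YFP-H148Q/I152L. EC50 derived from averaged triplicates.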

The nature of series [1]: Phosphate-buffered saline (PBS) solubility of compounds. The series is classed as physicochemical. The note with it: aqueous buffer, thermodynamic from solid, PBS pH 7.5, 0.5 mg/mL, vortexed 90 min, filtered, LC-MS/MS, read-out: Solubility Range. How it is done: PBS solutions (pH 7.5) were prepared according to the following compositions and stored at 4° C. Test compounds were dissolved in PBS (pH 7.5) at 0.5 mg/mL and vortexed for 90 min. The PBS solution was sequentially filtered through a 0.45, 1.2, […] syringe filter. Concentration of test compounds were determined using LC-MS/MS with appropriate dilution of the samples.

Chain of human wild type-CFTR (P13569 whole entry): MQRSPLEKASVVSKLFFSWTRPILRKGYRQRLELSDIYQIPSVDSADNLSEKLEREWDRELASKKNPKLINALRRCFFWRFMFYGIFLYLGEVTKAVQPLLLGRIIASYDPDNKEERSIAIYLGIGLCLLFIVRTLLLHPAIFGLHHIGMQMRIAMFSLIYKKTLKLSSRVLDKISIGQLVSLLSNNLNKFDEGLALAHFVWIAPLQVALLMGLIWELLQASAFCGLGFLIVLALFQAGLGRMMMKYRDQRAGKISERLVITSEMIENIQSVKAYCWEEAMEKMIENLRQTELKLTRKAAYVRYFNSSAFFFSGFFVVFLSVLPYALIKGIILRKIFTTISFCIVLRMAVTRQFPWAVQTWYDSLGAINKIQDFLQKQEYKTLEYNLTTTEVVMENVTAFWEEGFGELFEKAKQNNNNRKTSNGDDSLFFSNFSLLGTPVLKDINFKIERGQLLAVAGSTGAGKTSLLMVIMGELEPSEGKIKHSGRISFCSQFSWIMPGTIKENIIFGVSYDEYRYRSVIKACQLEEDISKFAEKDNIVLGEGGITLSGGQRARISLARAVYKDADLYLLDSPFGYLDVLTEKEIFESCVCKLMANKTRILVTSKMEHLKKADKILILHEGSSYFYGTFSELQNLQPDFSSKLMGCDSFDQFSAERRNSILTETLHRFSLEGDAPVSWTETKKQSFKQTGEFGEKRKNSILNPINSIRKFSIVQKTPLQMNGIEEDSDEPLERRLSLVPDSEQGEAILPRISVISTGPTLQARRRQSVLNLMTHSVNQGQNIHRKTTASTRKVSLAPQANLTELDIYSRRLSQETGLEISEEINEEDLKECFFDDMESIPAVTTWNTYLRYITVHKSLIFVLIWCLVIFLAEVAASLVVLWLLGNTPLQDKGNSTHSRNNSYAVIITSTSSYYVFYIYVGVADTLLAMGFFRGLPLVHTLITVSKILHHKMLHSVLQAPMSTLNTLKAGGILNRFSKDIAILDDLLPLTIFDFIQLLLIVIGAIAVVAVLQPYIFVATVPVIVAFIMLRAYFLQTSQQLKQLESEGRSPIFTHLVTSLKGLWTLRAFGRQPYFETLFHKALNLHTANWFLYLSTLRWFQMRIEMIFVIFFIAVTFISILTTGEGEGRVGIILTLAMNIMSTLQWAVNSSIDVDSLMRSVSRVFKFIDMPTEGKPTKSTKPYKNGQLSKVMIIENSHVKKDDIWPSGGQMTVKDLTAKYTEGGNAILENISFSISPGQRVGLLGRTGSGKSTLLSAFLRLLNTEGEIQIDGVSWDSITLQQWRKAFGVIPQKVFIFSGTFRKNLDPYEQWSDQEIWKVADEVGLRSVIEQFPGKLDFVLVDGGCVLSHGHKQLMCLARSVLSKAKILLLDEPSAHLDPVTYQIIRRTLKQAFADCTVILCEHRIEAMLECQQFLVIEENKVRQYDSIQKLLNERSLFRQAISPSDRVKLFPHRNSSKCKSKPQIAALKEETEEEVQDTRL

On to `COc1ccc(-c2ccnc3cc(C(=O)Nc4ccc(C(=O)N5CCN(C)CC5)c(O)c4)nn23)cc1OC` [Compound 170, 7-(3,4-dimethoxyphenyl)-N-(3-hydroxy-4-(4-methylpiperazine-1-carbonyl)phenyl)pyrazolo [1,5-a]pyrimidine-2-carboxamide], for which the EC50 at human wild type-CFTR is less than 200 nM. In addition, in series [1], the solubility at 90 min is 0.1 to 10 µg/mL (≈ 0.194 to 19.4 µM).
For the compound `COc1ccc(-c2ccnc3cc(C(=O)N[C@H]4CC[C@@H](C(=O)OC)CC4)nn23)cc1OC` [Compound 9, methyl (1S,4S)-4-(7-(3,4-dimethoxyphenyl)pyrazolo [1,5-a]pyrimidine-2-carboxamido)cyclohexane-1-carboxylate], the solubility at 90 min in series [1] is 0.1 to 10 µg/mL (≈ 0.228 to 22.8 µM).
Still for that read-out and setting: as for `COC(=O)c1cccc(NC(=O)c2cc3nccc(-c4ccc(OC)c(OC)c4)n3n2)c1` [Compound 8, methyl 3-(7-(3,4-dimethoxyphenyl)pyrazolo [1,5-a]pyrimidine-2-carboxamido)benzoate], the figure is less than 0.1 µg/mL; as for `COc1ccc(-c2ccnc3cc(C(=O)N[C@H]4CC[C@H](C(=O)O)CC4)nn23)cc1OC` [Compound 21, (1R,4R)-4-(7-(3,4-dimethoxyphenyl)pyrazolo [1,5-a]pyrimidine-2-carboxamido)cyclohexane-1-carboxylic acid], more than 10 µg/mL.
The same measure, in the same setting: as for `COc1ccc(-c2ccnc3cc(C(=O)N4CCC(NC(=O)OC(C)(C)C)CC4)nn23)cc1OC` [Compound 100, tert-butyl (1-(7-(3,4-dimethoxyphenyl)pyrazolo[1,5-a]pyrimidine-2-carbonyl)piperidin-4-yl)carbamate], the figure is 0.1 to 10 µg/mL (≈ 0.208 to 20.8 µM); as for `COc1ccc(-c2ccnc3cc(C(=O)N[C@H]4CC[C@@H](C(=O)O)CC4)nn23)cc1OC` [Compound 19, (1S,4S)-4-(7-(3,4-dimethoxyphenyl)pyrazolo [1,5-a]pyrimidine-2-carboxamido)cyclohexane-1-carboxylic acid], more than 10 µg/mL.
As for `COc1ccc(-c2ccnc3cc(C(=O)Nc4ccc(C(=O)N5CCN(C)CC5)c(C)c4)nn23)cc1OC` [Compound 215, 7-(3,4-dimethoxyphenyl)-N-(3-methyl-4-(4-methylpiperazine-1-carbonyl)phenyl)pyrazolo [1,5-a]pyrimidine-2-carboxamide], the EC50 at human wild type-CFTR is not below 2000 nM.
On the same count and under the same terms, as for `COc1ccc(-c2ccnc3cc(C(=O)N4C[C@@H](C)N[C@@H](C)C4)nn23)cc1OC` [Compound 358, (7-(3,4-dimethoxyphenyl)pyrazolo[1,5-a]pyrimidin-2-yl) ((3R,5S)-3,5-dimethylpiperazin-1-yl) methanone], the figure is 200 to 2000 nM; as for `COc1ccc(-c2ccnc3cc(C(=O)NC45CCC(C(=O)OCCCN6CCOCC6)(CC4)CC5)nn23)cc1OC` [Compound 255, 3-morpholinopropyl 4-(7-(3,4-dimethoxyphenyl)pyrazolo [1,5-a]pyrimidine-2-carboxamido)bicyclo[2.2.2] octane-1-carboxylate], less than 200 nM.
As for `COc1ccc(-c2ccnc3cc(C(=O)NC(=Cc4ccccc4)C(=O)N4CCN(C)CC4)nn23)cc1OC` [Compound 134, 7-(3,4-dimethoxyphenyl)-N-(3-(4-methylpiperazin-1-yl)-3-oxo-1-phenylprop-1-en-2-yl)pyrazolo[1,5-a] pyrimidine-2-carboxamide], the EC50 on human wild type-CFTR is less than 200 nM.
Take `COc1ccc(-c2ccnc3cc(C(=O)Nc4ccc(OC(=O)[C@@H](N)C(C)C)cc4)nn23)cc1OC` [Compound 172, 4-(7-(3,4-dimethoxyphenyl)pyrazolo[1,5-a]pyrimidine-2-carboxamido) phenyl L-valinate]: the EC50 at human wild type-CFTR was less than 200 nM.
Still for that read-out and setting: as for `COc1ccc(-c2ccnc3cc(C(=O)Nc4ccc(C(=O)N5CCN(C)CC5)cn4)nn23)cc1OC` [Compound 124, 7-(3,4-dimethoxyphenyl)-N-(5-(4-methylpiperazine-1-carbonyl)pyridin-2-yl)pyrazolo[1,5-a] pyrimidine-2-carboxamide], the figure is less than 200 nM; as for `COc1ccc(-c2ccnc3cc(C(=O)N[C@H]4CC[C@H](C(=O)N5CCN(c6ccccn6)CC5)CC4)nn23)cc1OC` [Compound 342, 7-(3,4-dimethoxphenyl)-N-((1R,4R)-4-(4-(pyridin-2-yl)piperazine-1-carbonyl)cyclohexyl) pyrazolo[1,5-a] pyrimidine-2-carboxamide], 200 to 2000 nM; as for `COc1ccc(-c2ccnc3cc(C(=O)Nc4ccc(CN5CCN(C)CC5)cc4)nn23)cc1OC` [Compound 243, 7-(3,4-dimethoxyphenyl)-N-(4-((4-methylpiperazin-1-yl)methyl)phenyl)pyrazolo [1,5-a]pyrimidine-2-carboxamide], 200 to 2000 nM.
Turning to `COc1ccc(-c2ccnc3cc(NC(=O)Nc4ccc(C(=O)O)cc4)nn23)cc1OC` [Compound 107, 4-(3-(7-(3,4-dimethoxyphenyl)pyrazolo[1,5-a]pyrimidin-2-yl)ureido)benzoic acid], the EC50 at human wild type-CFTR was not below 2000 nM.
`COc1ccc(-c2ccnc3cc(C(=O)Nc4ccc(C(=O)O)c(C)c4)nn23)cc1OC` [Compound 213, 4-(7-(3,4-dimethoxyphenyl)pyrazolo[1,5-a]pyrimidine-2-carboxamido)-2-methylbenzoic acid]: the EC50 on human wild type-CFTR was not below 2000 nM.
Still for that read-out and setting: the same measure for `COc1ccc(-c2ccnc3cc(C(=O)Nc4ccc(N5CCOCC5)cn4)nn23)c(F)c1` [Compound 297, 7-(2-fluoro-4-methoxyphenyl)-N-(5-morpholinopyridin-2-yl) pyrazolo[1,5-a]pyrimidine-2-carboxamide]: not below 2000 nM; for `COc1ccc(-c2ccnc3cc(C(=O)N4CC(NC(=O)OC(C)(C)C)C4)nn23)cc1OC` [Compound 116, tert-butyl (1-(7-(3,4-dimethoxyphenyl)pyrazolo [1,5-a]pyrimidine-2-carbonyl)azetidin-3-yl) carbamate]: 200 to 2000 nM; for `COc1ccc(-c2ccnc3cc(C(=O)N[C@]45CC[C@](N6CCOCC6)(CC4)CC5)nn23)cc1OC` [Compound 320, 7-(3,4-dimethoxyphenyl)-N-(4-morpholinobicyclo[2.2.2]octan-1-yl) pyrazolo[1,5-a]pyrimidine-2-carboxamide]: 200 to 2000 nM.
With `COc1ccc(-c2ccnc3cc(C(=O)Nc4ccc(C(=O)N5CCOCC5)nc4)nn23)cc1OC` [Compound 264, 7-(3,4-dimethoxyphenyl)-N-(6-(morpholine-4-carbonyl)pyridin-3-yl) pyrazolo[1,5-a]pyrimidine-2-carboxamide], on human wild type-CFTR, the EC50 is not below 2000 nM.
Still for that read-out and setting: as for `CCOC(=O)[C@H]1CC[C@H](NC(=O)c2cc3nccc(-c4ccc(OC)c(OC)c4)n3n2)CC1` [Compound 330, ethyl (1R,4R)-4-(7-(3,4-dimethoxyphenyl)pyrazolo [1,5-a]pyrimidine-2-carboxamido)cyclohexane-1-carboxylate], the figure is 200 to 2000 nM; as for `COc1ccc(-c2ccnc3cc(C(=O)N(C)c4ccc(C(=O)O)cc4)nn23)cc1OC` [Compound 234, 4-(7-(3,4-dimethoxyphenyl)-N-methylpyrazolo[1,5-a]pyrimidine-2-carboxamido)benzoic acid], not below 2000 nM.
Still for that read-out and setting: the same measure for `COc1ccc(-c2ccnc3cc(C(=O)N4CCN[C@@H](C5CC5)C4)nn23)cc1OC` [Compound 374, (S)-(3-cyclopropylpiperazin-1-yl)(7-(3,4-dimethoxyphenyl)pyrazolo [1,5-a]pyrimidin-2-yl)methanone]: 200 to 2000 nM; for `COc1ccc(-c2ccnc3cc(C(=O)N4CC[C@@H](NC(=O)OC(C)(C)C)C4)nn23)cc1OC` [Compound 115, tert-butyl (R)-(1-(7-(3,4-dimethoxyphenyl)pyrazolo [1,5-a]pyrimidine-2-carbonyl)pyrrolidin-3-yl)carbamate]: 200 to 2000 nM; for `COc1ccc(-c2ccnc3cc(C(=O)N[C@H]4CC[C@H](C(N)=O)CC4)nn23)cc1OC` [Compound 74, N-((1R,4R)-4-carbamoylcyclohexyl)-7-(3,4-dimethoxyphenyl)pyrazolo [1,5-a]pyrimidine-2-carboxamide]: not below 2000 nM.
Same read-out and setting: the same measure for `COc1ccc(-c2ccnc3cc(C(=O)Nc4ccc(C(=O)OCCCN5CCCC5)cc4)nn23)cc1OC` [Compound 226, 3-(pyrrolidin-1-yl)propyl 4-(7-(3,4-dimethoxyphenyl)pyrazolo [1,5-a]pyrimidine-2-carboxamido)benzoate]: not below 2000 nM.
Take `COc1ccc(-c2ccnc3cc(C(=O)N4C[C@H](C)N(C(=O)c5ccccc5)C[C@H]4C)nn23)cc1OC` [Compound 365, ((2R,5S)-4-benzoyl-2,5-dimethylpiperazin-1-yl)(7-(3,4-dimethoxyphenyl)pyrazolo[1,5-a]pyrimidin-2-yl)methanone]: at human wild type-CFTR, the EC50 was less than 200 nM.
The same measure, in the same setting: the same measure for `CCOc1ccc(NC(=O)c2cc3nccc(-c4ccc(OC)c(OC)c4)n3n2)nc1` [Compound 314, 7-(3,4-dimethoxyphenyl)-N-(5-ethoxypyridin-2-yl)pyrazolo[1,5-a] pyrimidine-2-carboxamide]: less than 200 nM; for `COc1ccc(-c2ccnc3cc(C(=O)NC4CCN(C(=O)CO)CC4)nn23)cc1OC` [Compound 91, 7-(3,4-dimethoxyphenyl)-N-(1-(2-hydroxyacetyl)piperidin-4-yl)pyrazolo[1,5-a]pyrimidine-2-carboxamide]: not below 2000 nM; for `COc1ccc(-c2ccnc3cc(C(=O)N4CCN(Cc5ccccc5)CC4)nn23)cc1OC` [Compound 154, (4-benzylpiperazin-1-yl) (7-(3,4-dimethoxyphenyl)pyrazolo [1,5-a]pyrimidin-2-yl)methanone]: 200 to 2000 nM.
